This is an account of results in US8795633B2, “Multiphoton in vivo flow cytometry method and device” (Purdue Research Foundation, priority 2005, dated 2014).

*1 amine or outer side, *2 acyl side, *3 side chain or, on linkers, in order; H or OH if unused. Where a SMILES comes first, the peptide text is derived from it. Bridges are numbered along the chain shown (N, C = ends). [ ]: non-standard residue; d: D form. The star is where a group is joined. ξ: configuration not given here. X1 = O=C(O)CNC(=O)C(CCCCNC(=S)Nc1ccc(-c2c3ccc(=O)cc-3oc3cc(O)ccc23)c(C(=O)O)c1)N*; X2 = O=C(C1CCN[c+]2c(N[*:1])cc3cc(O)c(O)cc3n21)[*:2]; ξOrn(N(OH)CHO) = NC(CCCN(O)C=O)C(=O)O; Glutaryl = O=C(CCCC(=O)[*:2])[*:1]

The test system of one experiment is Yersinia enterocolitica. Briefly: FACS analysis of desferrioxamine fluorescein binding and competition. The procedure: (§1) This procedure applies to Examples 25-27. For cell sorting assays, iron limited conditions were maintained by addition of dipyridyl to the culture (final concentration of […]). Cells were grown to mid-log phase (NB or LB broth), the siderophore conjugates added to 10-20 million CFU of bacterial cells to a final siderophore conjugate concentration of 2-3 uM (total volume=11 mL), and incubated for a period of 30 minutes. Competition was performed by adding a 100-fold excess of desferrioxamine (Yersinia) or pyoverdine PaA (Pseudomonas) to the cells 15 minutes prior to incubation with the siderophore conjugates. Fluorescently activated cell sorting (FACS) was performed on a FACS Caliber (BD Bio systems, Franklin Lakes, N.J.) cell sorter with both the forward scatter and side scatter in the log mode per manufactures guidelines for analyzing bacteria. Bacteria samples were diluted with PBS to achieve 200-400 counts per second.
In this case, fluorescence shift indicates binding of the fluorescein conjugate to the siderophore receptor on the bacterial surface; whereas, adding excess non-labeled ligand (competition) reduces the number of free binding sites prior to conjugate incubation. […] It is interesting to note that this compound was iron unloaded and thus consistent with unloaded siderophore binding reported by Schalk et al., Mol. Microbiol. 39: 351-360 (2001).
(In general: In flow cytometry, cells or beads pass a laser one at a time.)

A further experiment deals with Pseudomonas aeruginosa. Briefly: FACS analysis of pyoverdine peptide fluorescein binding and competition. The note with it: 0.1 μM conjugate; 100-fold excess free pyoverdine. The procedure: The x-axis indicates fluorescence intensity.
as §1
Cell studies using FACS analysis and Pseudomonas aeruginosa were performed essentially as described under Example 25 (see FIG. 10) to assess binding and competition of this molecule (concentrations ranged from 1 μM to 1 nM).

Experiment [1] deals with T1, cell surface folate receptors (Mus musculus, UniProt P35846).
T1 construct: cell surface folate receptors on folate receptor positive M109 cells in culture; endogenous in cells; host or cells: M109 cells
The experiment is described as follows: Fluorescence measurement of binding to folate receptor positive M109 cells in culture. The procedure: Texas Red C2-maleimide (Molecular Probes, Eugene, Oreg.) was dissolved in dimethyl sulfoxide (DMSO) (1 mg in 200 μl DMSO). A 1.4 molar equivalent (1 mg) of Folate-Cys was added to the solution and mixed for 4 hours at room temperature. Folate-Cys-Texas Red (Folate-Texas Red) was purified by reverse-phase HPLC on a C18 column at a flow rate of 1 ml/min. The mobile phase, consisting of 10 mM NH4HCO3 buffer, pH 7.0 (eluent A) and acetonitrile (eluent B), was maintained at a 99:1 A:B ratio for the first five minutes and then changed to 70:30 A:B in a linear gradient over the next 30 minutes followed by a 1:99 A:B linear gradient over the last 15 minutes. Folate-Cys-Texas Red eluted as two isomer peaks at 44.5 and 45.8 minutes. The product was confirmed by mass spectroscopy and the biologic activity was confirmed by fluorescence measurement of its binding to cell surface folate receptors on folate receptor positive M109 cells in culture.

T1 sequence (P35846 25-232): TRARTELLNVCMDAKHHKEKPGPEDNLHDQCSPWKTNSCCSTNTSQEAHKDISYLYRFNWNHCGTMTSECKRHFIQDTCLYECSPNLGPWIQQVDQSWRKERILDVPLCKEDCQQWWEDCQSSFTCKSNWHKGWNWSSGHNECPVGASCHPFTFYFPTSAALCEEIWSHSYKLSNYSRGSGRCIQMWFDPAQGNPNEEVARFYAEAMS

Turning to `CC(=O)N(O)CCCCCNC(=O)CCC(=O)NCCCCCNC(=O)CCC(=O)N(O)CCCCCNC(=S)Nc1ccc(-c2c3ccc(=O)cc-3oc3cc(O)ccc23)c(C(=O)O)c1` [desferrioxamine fluorescein], in the experiment on Yersinia enterocolitica (competition with a 100-fold excess of desferrioxamine), the “shift in fluorescence intensity with competition” value came out at 15%. Moreover, the “shift in fluorescence intensity” value in the experiment with Yersinia enterocolitica (non-competed, 2 μM conjugate concentration, non-incubated control 1%) is on record as roughly 50%.

For the compound `CC(O)C1NC(=O)C(CCCN(O)C=O)NC(=O)C(NC(=O)C(CCCN(O)C=O)NC(=O)C(CO)NC(=O)C(CCCNC(=N)N)NC(=O)C(CO)NC(=O)C2CCN[c+]3c(NC(=O)CCCC(=O)NC(CCC(=O)O)C(=O)NC(CCCCNC(=S)Nc4ccc(-c5c6ccc(=O)cc-6oc6cc(O)ccc56)c(C(=O)O)c4)C(=O)NCC(=O)O)cc4cc(O)c(O)cc4n32)CCCCNC(=O)C(C(C)O)NC1=O` (stereo not shown) [Pyoverdine Peptide Fluorescein] ({X1-Glu-Glutaryl}-[X2]SRS[ξOrn(N(OH)CHO)]K[ξOrn(N(OH)CHO)]TT; lactam 6-C; configuration not given here), the binding and competition entry in the experiment on Pseudomonas aeruginosa is recorded as “competition using free pyoverdine was detected”. For the compound `Nc1nc2ncc(CNc3ccc(C(=O)NC(CCC(=O)NC(CSC4CC(=O)N(CCNS(=O)(=O)c5ccc(C6=c7cc8c9c(c7Oc7c6cc6c%10c7CCCN%10CCC6)CCC[N+]=9CCC8)c(S(=O)(=O)[O-])c5)C4=O)C(=O)O)C(=O)O)cc3)nc2c(=O)[nH]1` (stereo not shown) [Folate-Cys-Texas Red], the “biologic activity (binding to cell surface folate receptors)” value in experiment [1] is given as “confirmed”.
